Common to all, as to experiment: Holoreceptor transactivation assay
What all share (type): cell-based

The target in one assay is T1, RARα (Homo sapiens, UniProt P10276).
T1 sequence (P10276 1-462): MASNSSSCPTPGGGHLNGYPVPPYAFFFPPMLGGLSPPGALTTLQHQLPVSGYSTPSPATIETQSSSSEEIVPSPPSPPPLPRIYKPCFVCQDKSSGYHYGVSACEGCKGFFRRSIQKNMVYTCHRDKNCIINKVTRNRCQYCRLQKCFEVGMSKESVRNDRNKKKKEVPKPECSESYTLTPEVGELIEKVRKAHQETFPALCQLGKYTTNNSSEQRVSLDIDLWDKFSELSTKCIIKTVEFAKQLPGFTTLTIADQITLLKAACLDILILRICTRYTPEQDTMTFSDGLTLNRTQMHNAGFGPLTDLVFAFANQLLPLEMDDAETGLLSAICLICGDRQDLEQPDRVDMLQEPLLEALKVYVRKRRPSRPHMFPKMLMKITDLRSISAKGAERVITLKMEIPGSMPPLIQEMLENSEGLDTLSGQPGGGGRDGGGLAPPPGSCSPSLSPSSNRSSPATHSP
The arrangement: expressed in transfected cells; host or cells: CV1 cells. The settings on record: relative to all trans retinoic acid; read-out: Transactivation Assay Efficacy (% of RA activity) RARα. From the text:
(§1) A holoreceptor transactivation assay and a ligand binding assay which measure the antagonist/agonist like activity of the compounds of the invention, or their ability to bind to the several retinoid receptor subtypes, respectively, are described in published PCT Application No. WO93/11755 (particularly on pages 30-33 and 37-41) published on Jun. 24, 1993, the specification of which is also incorporated herein by reference. A description of the holoreceptor transactivation assay is also provided below.
(§2) CV1 cells (5,000 cells/well) were transfected with an RAR reporter plasmid MTV-TREp-LUC (50 ng) along with one of the RAR expression vectors (10 ng) in an automated 96-well format by the calcium phosphate procedure of Heyman et al. Cell 68: 397-406. For RXR-α and RXR-γ transactivation assays, an RXR-responsive reporter plasmid CRBPII-tk-LUC (50 ng) along with the appropriate RXR expression vectors (10 ng) was used substantially as described by Heyman et al. above, and Allegretto et al. J. Biol. Chem. 268: 26625-26633. For RXR-β transactivation assays, an RXR-responsive reporter plasmid CPRE-tk-LUC ([…]) along with RXR-β expression vector ([…]) was used as described in above. These reporters contain DRI elements from human CRBPII and certain DRI elements from promotor, respectively (see Mangelsdorf et al. The Retinoids: Biology Chemistry and Medicine, pp. 319-349, Raven Press Ltd., New York and Heyman et al., cited above). A β-galactosidase (50 ng) expression vector was used as an internal control in the transfections to normalize for variations in transfection efficiency. The cells were transfected in triplicate for 6 hours, followed by incubation with retinoids for 36 hours, and the extracts were assayed for luciferase and […] activities. The detailed experimental procedure for holoreceptor transactivations has been described in Heyman et al. above, and Allegretto et al. cited above. The results obtained in this assay are expressed in EC50 numbers, as they are also in the chimeric receptor transactivation assay. The Heyman et al. Cell 68: 397-406, Allegretto et al. J. Biol. Chem. 268: 26625-26633, and Mangelsdorf et al. The Retinoids: Biology, Chemistry, and Medicine, pp. 319-349, Raven Press Ltd., New York, are expressly incorporated herein by reference. The results of ligand binding assay are expressed in Kd numbers. (See Cheng et al. Biochemical Pharmacology 22: 3099-3108, expressly incorporated herein by reference.)
(§3) A compound should not cause significant activation of a reporter gene through a given receptor subtype (RAR-α, RAR-β or RAR-γ) in the holoreceptor transactivation assay, in order to qualify as an RAR antagonist with utility in the present invention.

A further assay addresses T2, RARγ (Homo sapiens, UniProt P13631).
T2 sequence (P13631 1-454): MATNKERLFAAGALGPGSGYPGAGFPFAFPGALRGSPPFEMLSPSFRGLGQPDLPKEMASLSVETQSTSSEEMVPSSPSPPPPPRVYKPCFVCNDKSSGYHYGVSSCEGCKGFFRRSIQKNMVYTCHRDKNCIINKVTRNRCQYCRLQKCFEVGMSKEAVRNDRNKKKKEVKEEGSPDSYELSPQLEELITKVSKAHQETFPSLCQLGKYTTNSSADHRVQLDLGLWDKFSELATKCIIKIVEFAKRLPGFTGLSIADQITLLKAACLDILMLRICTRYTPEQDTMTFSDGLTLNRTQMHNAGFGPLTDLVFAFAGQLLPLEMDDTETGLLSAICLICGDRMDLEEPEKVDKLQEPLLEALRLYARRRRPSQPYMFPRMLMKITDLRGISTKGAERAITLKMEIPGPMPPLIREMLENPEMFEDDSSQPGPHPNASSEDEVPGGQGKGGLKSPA
Also on record: expressed in transfected cells; host or cells: CV1 cells. The settings on record: relative to all trans retinoic acid; read-out: Transactivation Assay Efficacy (% of RA activity) RARγ.
Source text: as §1, §2, §3

A further assay concerns the target T3, RXRα (Homo sapiens, UniProt P19793).
T3 construct: expressed in transfected cells; host or cells: CV1 cells
T3 sequence (P19793 1-462): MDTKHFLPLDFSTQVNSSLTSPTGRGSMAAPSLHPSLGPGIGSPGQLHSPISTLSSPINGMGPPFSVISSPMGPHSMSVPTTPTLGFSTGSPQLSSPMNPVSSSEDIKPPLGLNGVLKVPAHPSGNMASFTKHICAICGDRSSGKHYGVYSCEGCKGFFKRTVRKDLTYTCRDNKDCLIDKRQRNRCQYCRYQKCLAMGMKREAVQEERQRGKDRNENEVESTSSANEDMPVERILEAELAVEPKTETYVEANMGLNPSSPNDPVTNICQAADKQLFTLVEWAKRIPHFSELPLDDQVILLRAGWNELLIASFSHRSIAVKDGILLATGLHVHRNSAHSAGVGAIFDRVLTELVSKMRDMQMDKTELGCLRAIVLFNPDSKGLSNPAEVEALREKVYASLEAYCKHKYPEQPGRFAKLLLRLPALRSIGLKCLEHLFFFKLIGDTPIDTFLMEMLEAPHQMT
As to conditions: relative to all trans retinoic acid; read-out: Transactivation Assay Efficacy (% of RA activity) RXRα.
Source text: as §1, §2

Consider `CC(C)(C)c1ccc(C2=CCC(C)(C)c3ccc(C#Cc4ccc(C(=O)O)cc4)cc32)cc1` [Compound 61, 4-[(5,6-Dihydro-5,5-dimethyl-8-(4-(1,1-dimethylethyl)phenyl)-2-naphthalenyl)ethynyl]benzoic acid], for which the Emax came to 2% on RARα, 0% at RARγ and 1% at RXRα.
Take `CC1(C)CC=C(c2ccccn2)c2cc(C#Cc3ccc(C(=O)O)cc3)ccc21` [Compound 19, 4-[(5,6-Dihydro-5,5-dimethyl-8-(2-pyridyl)-2-naphthalenyl)ethynyl]benzoic acid]: the values for the Emax at RARα, at RARγ and at RXRα were 0%, 3% and 0%, respectively.
In the case of `Cc1cccc(C2=CCC(C)(C)c3ccc(C#Cc4ccc(C(=O)O)cc4)cc32)c1` [Compound 20, 4-[(5,6-Dihydro-5,5-dimethyl-8-(3-methylphenyl)-2-naphthalenyl)ethynyl]benzoic acid], the Emax stood at 3% on RARα, 0% at RARγ and 4% at RXRα.
For `Cc1ccc(C2=CCC(C)(C)c3cc(C(=O)C=Cc4ccc(C(=O)O)cc4)ccc32)cc1` [Compound 101, 4-[3-oxo-3-(7,8-dihydro-5-(4-methylphenyl)-8,8-dimethyl-2-naphthalenyl)-1-propenyl]-benzoic acid], the Emax on RARα was found to be 0%; at RARγ, 2%; at RXRα, 1%.
As for `CC1(C)CC=C(c2ccc(Cl)cc2)c2cc(C#Cc3ccc(C(=O)O)cc3)ccc21` [Compound 25, 4-[(5,6-Dihydro-5,5-dimethyl-8-(4-chlorophenyl)-2-naphthalenyl)ethynyl]benzoic acid], the Emax amounted to 2% at RARα, 3% on RARγ and 5% on RXRα.
On the same counts, the results for `CC1(C)CC=C(c2ccc(O)cc2)c2cc(C#Cc3ccc(C(=O)O)cc3)ccc21` [Compound 29, 4-[(5,6-Dihydro-5,5-dimethyl-8-(4-hydroxyphenyl)-2-naphthalenyl)ethynyl]benzoic acid] are 0%, 11% and 0%.
Take `CCc1ccc(C2=CCC(C)(C)c3ccc(C#Cc4ccc(C(=O)O)cc4)cc32)cc1` [Compound 21, 4-[(5,6-Dihydro-5,5-dimethyl-8-(4-ethylphenyl)-2-naphthalenyl)ethynyl]benzoic acid]: the Emax on RARα is 2%; at RARγ it was 2%; at RXRα, 3%.
For `Cc1ccc(C2=CCC(C)(C)c3ccc(C#Cc4ccc(C(=O)O)cc4)cc32)cn1` [Compound 18, 4-[(5,6-Dihydro-5,5-dimethyl-8-(2-methyl-5-pyridyl)-2-naphthalenyl)ethynyl]benzoic acid], the Emax at RARα is 4%; on RARγ, 0%; at RXRα it was 2%.
For `Cc1ccc(C2=CCC(C)(C)c3ccc(/C=C/c4ccc(C(=O)O)cc4)cc32)cc1` [Compound 45], the figures for the Emax at RARα, at RARγ and on RXRα were 2%, 7% and 3%, respectively.
Take `COc1ccc(C2=CCC(C)(C)c3ccc(C#Cc4ccc(C(=O)O)cc4)cc32)cc1` [Compound 22, 4-[(5,6-Dihydro-5,5-dimethyl-8-(4-methoxyphenyl)-2-naphthalenyl)ethynyl]benzoic acid]: the figures for the Emax at RARα, on RARγ and at RXRα were 0%, 2% and 1%, respectively.
Take `CC(/C=C/C=C(\C)c1ccc2c(c1)C(c1ccc(C)cc1)=CCC2(C)C)=C\C(=O)O` [Compound 52, (E,E,E)-3-methyl-7-(5,6-dihydro-5,5-dimethyl-8-(4-methylphenyl)-2-naphthalenyl)-2,4,6-octatrienoic acid]: the Emax on RARα amounted to 0%; on RARγ it was 3%; at RXRα it was 0%.
For the compound `Cc1ccc(C2=CCC(C)(C)c3ccc(C(=O)Nc4ccc(C(=O)O)cc4)cc32)cc1` [Compound 36, 4-[[(5,6-Dihydro-5,5-dimethyl-8-(4-methylphenyl)-2-naphthalenyl)carbonyl]amino]-benzoic acid], the Emax at RARα is 1%; on RARγ it was 0%; on RXRα, 1%.

(Values after patent US6469028B1, “Synthesis and use of retinoid compounds having negative hormone and/or anatgonist activities” (Allergan, Inc., priority 1995, dated 2002).)
